Test results reported in US8962596B2 (Array BioPharma Inc., priority 2010, dated 2015).

Columns and labels:
Type in all cases: biochemical
Human Tyk2 kinase domain = target: T1, Human Tyk2 kinase domain (Homo sapiens, UniProt P29597); test: Tyk2 Inhibition Assay (Omnia kinase fluorescence peptide substrate assay); conditions: averaged IC50 ranges; assay of Example A; 10 μM (Km app) or 1 mM ATP, 2 nM Tyk2
T1 construct: comprising amino acids 886 to 1187 with 10 additional histidine residues; 10xHis (histidine tag) (C, cleaved yes); made in house
T1 sequence (P29597 886-1187): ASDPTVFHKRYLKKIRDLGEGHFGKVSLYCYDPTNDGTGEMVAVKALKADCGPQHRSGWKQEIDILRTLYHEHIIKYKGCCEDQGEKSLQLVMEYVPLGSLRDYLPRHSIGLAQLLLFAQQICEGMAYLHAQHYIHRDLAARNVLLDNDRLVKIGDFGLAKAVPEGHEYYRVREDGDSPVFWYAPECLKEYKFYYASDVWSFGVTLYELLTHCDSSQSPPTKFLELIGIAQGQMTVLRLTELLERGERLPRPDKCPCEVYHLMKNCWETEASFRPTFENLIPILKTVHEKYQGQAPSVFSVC
Description: (§1) The assays described in Examples A, B, C and D for the determination of Tyk2, JAK1, JAK2 and JAK3 kinase activity, respectively, utilized the Omnia® Kinase fluorescence peptide substrate-based technology (Invitrogen). The specific components of the assay mixture are described in Examples A, B, C and D. In these assays, Mg^2+ is chelated upon phosphorylation of the Omnia peptide by the kinase to form a bridge between the chelation-enhanced fluorophore Sox and the phosphate, resulting in an increase in fluorescence emission at 485 nm when excited at […]. The reactions were therefore read at excitation 360 nm and emission was measured at 485 nm every 50 seconds for 45 minutes using a PerkinElmer EnVision Multilabel Plate Reader.
(§2) The final buffer conditions for Tyk2, JAK1, JAK2, and JAK3 assays were as follows: 25 mM HEPES, pH 7.4, 10 mM MgCl2, 0.01% Triton X-100 and 1 mM DTT.
(§3) Compounds were prepared at 50× the final concentration in DMSO by conducting 3-fold serial dilutions from a 500-μM intermediate dilution to give a 10-point dosing curve having a high dose of 10 μM. Two-μL aliquots of these were transferred to a fresh plate for a ten-fold intermediate dilution with assay buffer. Five-μL aliquots of the diluted compounds were then transferred to 20-μL of assay mixtures described in Examples A, B, C and D for a final concentration of DMSO of 2%. A standard or reference compound was typically included on each assay plate to validate that plate. For each plate, percent of control (POC) values were calculated for each well according to the following equation:
(§4) where Xmax=Average Uninhibited Controls • Xmin=Average Background IC50's were estimated from the POC's using a standard 4-parameter logistic model:
(§5) where • A=Minimum Y (Bottom Asymptote) • B=Maximum Y (Top Asymptote) • C=EC50 • D=Slope Factor • X=Compound Concentration (nM) • Y=POC
(§6) The IC50 is defined as the concentration of inhibitor at which the POC equals 50 for the fitted curve.
Compounds of Formula I were screened for their ability to inhibit Tyk2 using the general enzyme inhibition assay method, in which the assay mixture contained 10 μM (Km app) or 1 mM ATP, 8 μM Omnia® Y12 peptide (Catalog #IVGN KPZ3121C; Invitrogen Corporation, Carlsbad, Calif.) and 2 nM Tyk2 in a total volume of 20 μL. Human Tyk2 kinase domain, comprising amino acids 886 to 1187 with 10 additional histidine residues (histidine tag) on the carboxy terminus, was expressed and purified from bacculovirus in-house at Array BioPharma Inc. (Boulder, Colo.). The histidine tag was cleaved after purification using standard conditions.

JAK1 = target: T2, JAK1 (Homo sapiens, UniProt P23458); test: JAK1 Inhibition Assay (Omnia kinase fluorescence peptide substrate assay); conditions: averaged IC50 ranges; assay of Example B; 40 μM (Km app) or 1 mM ATP, 15 nM JAK1
T2 construct: purchased Invitrogen Corporation, Carlsbad, Calif; PV4775
Description: as §1, §2, §3, §4, §5, §6
Compounds of Formula I were screened for their ability to inhibit JAK1 using the general enzyme inhibition assay method, in which the assay mixture contained 40 μM (Km app) or 1 mM ATP, 8 μM Omnia® Y12 peptide (Catalog #IVGN KPZ3121C; Invitrogen Corporation, Carlsbad, Calif.) and 15 nM JAK1 in a total volume of 20 μL. JAK1 was purchased from Invitrogen Corporation, Carlsbad, Calif. (catalog #IVGN PV4775).

JAK2 = target: T3, JAK2 (Homo sapiens, UniProt O60674); test: JAK2 Inhibition Assay (Omnia kinase fluorescence peptide substrate assay); conditions: averaged IC50 ranges; assay of Example C; 25 μM (Km app) or 1 mM ATP, 5 nM JAK2
T3 construct: purchased Invitrogen Corporation, Carlsbad, Calif; PV4288
Description: as §1, §2, §3, §4, §5, §6
(§7) Compounds of Formula I were screened for their ability to inhibit JAK2 using the general enzyme inhibition assay method, in which the assay mixture contained 25 μM (Km app) or 1 mM ATP, 10 μM Omnia® Y7 peptide (Catalog #IVGN KNZ3071C, Invitrogen Corporation, Carlsbad, Calif.) and 5 nM JAK2 in a total volume of 20 μL. JAK2 was purchased from Invitrogen Corporation, Carlsbad, Calif. (catalog #IVGN PV4288).

JAK3 = target: T4, JAK3 (Homo sapiens, UniProt P52333); test: JAK3 Inhibition Assay (Omnia kinase fluorescence peptide substrate assay); conditions: averaged IC50 ranges; assay of Example D; 10 μM (Km app) or 1 mM ATP, 2.5 nM JAK3
T4 construct: purchased Invitrogen Corporation, Carlsbad, Calif; PV4080
T4 sequence (P52333 1-1124): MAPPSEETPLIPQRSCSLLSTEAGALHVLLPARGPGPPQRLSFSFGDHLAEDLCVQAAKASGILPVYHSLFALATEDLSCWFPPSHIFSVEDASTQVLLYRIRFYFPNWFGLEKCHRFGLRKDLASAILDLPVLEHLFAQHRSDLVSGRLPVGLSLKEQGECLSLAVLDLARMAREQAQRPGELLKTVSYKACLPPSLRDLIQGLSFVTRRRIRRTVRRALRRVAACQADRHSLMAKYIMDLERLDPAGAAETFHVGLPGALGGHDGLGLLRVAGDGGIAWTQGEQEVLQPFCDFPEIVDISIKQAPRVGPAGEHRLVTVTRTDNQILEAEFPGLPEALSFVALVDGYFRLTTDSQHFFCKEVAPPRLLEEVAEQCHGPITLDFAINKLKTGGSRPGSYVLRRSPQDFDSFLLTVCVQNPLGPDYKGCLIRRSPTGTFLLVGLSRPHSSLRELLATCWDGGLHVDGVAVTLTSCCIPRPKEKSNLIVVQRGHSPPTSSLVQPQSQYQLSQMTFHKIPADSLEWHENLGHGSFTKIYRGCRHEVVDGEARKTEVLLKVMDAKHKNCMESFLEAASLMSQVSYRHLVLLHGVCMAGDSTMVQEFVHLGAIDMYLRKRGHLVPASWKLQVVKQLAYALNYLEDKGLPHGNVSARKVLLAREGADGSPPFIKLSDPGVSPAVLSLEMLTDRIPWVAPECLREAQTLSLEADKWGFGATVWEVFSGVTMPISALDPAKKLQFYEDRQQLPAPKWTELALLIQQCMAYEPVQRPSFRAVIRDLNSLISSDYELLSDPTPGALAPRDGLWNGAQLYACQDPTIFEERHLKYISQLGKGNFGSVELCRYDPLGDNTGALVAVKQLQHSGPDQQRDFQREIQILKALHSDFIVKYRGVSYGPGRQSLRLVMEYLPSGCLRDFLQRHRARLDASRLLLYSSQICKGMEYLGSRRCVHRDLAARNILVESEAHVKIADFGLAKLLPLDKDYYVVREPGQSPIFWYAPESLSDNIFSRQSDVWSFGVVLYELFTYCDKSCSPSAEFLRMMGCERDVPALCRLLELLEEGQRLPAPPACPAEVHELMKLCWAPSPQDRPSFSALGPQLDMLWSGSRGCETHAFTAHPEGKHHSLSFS
Description: as §1, §2, §3, §4, §5, §6
as §7, with “JAK3” for “JAK2”, “10” for “25”, “2.5” for “5”, “PV4080).” for “PV4288).”

T2 sequence (P23458 whole entry): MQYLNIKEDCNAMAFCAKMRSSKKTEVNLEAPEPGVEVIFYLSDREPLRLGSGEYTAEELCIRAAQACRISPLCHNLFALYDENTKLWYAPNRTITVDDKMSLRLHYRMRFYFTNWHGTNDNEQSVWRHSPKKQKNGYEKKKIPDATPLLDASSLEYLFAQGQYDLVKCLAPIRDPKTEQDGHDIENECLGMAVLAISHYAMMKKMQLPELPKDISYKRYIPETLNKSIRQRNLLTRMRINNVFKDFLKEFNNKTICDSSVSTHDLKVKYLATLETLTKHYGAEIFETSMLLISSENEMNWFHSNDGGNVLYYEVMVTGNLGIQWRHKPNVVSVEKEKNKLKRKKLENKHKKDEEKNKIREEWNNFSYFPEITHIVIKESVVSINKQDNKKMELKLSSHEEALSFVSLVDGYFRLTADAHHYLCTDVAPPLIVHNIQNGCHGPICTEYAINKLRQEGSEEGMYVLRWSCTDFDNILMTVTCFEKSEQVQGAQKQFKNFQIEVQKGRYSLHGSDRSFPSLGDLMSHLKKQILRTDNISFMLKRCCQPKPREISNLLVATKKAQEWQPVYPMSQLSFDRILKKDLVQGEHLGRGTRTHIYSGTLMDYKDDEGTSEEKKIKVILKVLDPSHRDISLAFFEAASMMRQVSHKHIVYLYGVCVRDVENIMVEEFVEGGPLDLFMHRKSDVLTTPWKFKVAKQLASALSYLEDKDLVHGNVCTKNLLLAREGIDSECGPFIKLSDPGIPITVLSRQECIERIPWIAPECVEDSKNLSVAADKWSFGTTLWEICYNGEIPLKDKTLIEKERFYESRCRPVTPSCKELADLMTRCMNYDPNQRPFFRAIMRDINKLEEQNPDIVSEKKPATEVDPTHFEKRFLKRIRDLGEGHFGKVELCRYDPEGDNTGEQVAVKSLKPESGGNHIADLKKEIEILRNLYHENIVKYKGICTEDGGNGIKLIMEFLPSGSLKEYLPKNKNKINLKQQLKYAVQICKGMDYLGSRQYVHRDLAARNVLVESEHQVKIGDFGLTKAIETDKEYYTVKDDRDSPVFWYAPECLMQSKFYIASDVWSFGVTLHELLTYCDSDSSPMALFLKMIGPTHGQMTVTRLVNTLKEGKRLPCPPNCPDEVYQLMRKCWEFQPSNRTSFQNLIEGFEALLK
T3 sequence (O60674 whole entry): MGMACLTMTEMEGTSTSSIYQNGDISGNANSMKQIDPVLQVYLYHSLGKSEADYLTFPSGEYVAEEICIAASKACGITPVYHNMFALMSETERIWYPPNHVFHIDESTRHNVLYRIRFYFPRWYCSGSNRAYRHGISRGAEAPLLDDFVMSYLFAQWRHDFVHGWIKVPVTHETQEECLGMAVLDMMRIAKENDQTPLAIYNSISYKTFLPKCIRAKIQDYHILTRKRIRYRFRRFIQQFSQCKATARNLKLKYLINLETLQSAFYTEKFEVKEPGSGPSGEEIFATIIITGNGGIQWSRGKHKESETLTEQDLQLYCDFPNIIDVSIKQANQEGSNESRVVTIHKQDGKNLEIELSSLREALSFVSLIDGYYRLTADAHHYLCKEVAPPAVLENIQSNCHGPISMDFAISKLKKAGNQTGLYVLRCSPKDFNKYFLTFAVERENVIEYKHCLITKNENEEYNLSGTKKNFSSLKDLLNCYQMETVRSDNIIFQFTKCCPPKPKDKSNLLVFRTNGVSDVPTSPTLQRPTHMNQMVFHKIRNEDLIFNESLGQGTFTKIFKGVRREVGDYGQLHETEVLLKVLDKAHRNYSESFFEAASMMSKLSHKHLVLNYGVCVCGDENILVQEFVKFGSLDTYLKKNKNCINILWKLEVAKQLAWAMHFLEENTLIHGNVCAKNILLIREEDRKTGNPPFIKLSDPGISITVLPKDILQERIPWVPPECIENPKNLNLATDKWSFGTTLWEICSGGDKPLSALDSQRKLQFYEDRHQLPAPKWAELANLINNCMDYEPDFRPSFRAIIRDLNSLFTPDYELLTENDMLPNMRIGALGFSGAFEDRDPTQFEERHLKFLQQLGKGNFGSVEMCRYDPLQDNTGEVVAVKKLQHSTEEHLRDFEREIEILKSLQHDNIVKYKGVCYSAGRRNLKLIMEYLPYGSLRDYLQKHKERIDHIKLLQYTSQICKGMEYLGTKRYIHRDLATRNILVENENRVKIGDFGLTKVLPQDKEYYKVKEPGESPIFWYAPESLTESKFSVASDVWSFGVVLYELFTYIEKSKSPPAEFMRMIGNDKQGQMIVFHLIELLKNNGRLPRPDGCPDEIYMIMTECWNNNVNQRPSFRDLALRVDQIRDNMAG

IC50 (Human Tyk2 kinase domain)	IC50 (JAK1)	IC50 (JAK2)	IC50 (JAK3)	SMILES
10 to 100 nM	100 to 1000 nM	10 to 100 nM	> 1000 nM	CC(C)Cn1cc(-c2cc3nccn3c(-c3cnn(C(CC#N)C4CC4)c3)n2)cn1 (centres unmarked) [Example 37, 3-cyclopropyl-3-(4-(7-(1-isobutyl-1H-pyrazol-4-yl)imidazo[1,2-c]pyrimidin-5-yl)-1H-pyrazol-1-yl)propanenitrile]
< 10 nM	100 to 1000 nM	10 to 100 nM	> 1000 nM	Cn1cc(-c2cc3nccn3c(-c3cnn(C4(CC#N)CN(CC5CC5)C4)c3)n2)cn1 [Example 84, 2-(1-(cyclopropylmethyl)-3-(4-(7-(1-methyl-1H-pyrazol-4-yl)imidazo[1,2-c]pyrimidin-5-yl)-1H-pyrazol-1-yl)azetidin-3-yl)acetonitrile]
100 to 1000 nM	100 to 1000 nM	> 1000 nM	> 1000 nM	N#CCC(C1CC1)n1cc(-c2nc(C(=O)Nc3ccccn3)cc3nccn23)cn1 (centres unmarked) [Example 125, 5-(1-(2-cyano-1-cyclopropylethyl)-1H-pyrazol-4-yl)-N-(pyridin-2-yl)imidazo[1,2-c]pyrimidine-7-carboxamide]
< 10 nM	100 to 1000 nM	10 to 100 nM	100 to 1000 nM	N#CCC1(n2cc(-c3nc(-c4cnn(C5COC5)c4)cc4nccn34)cn2)CC2(CCC2)C1 [Example 162, 2-(2-(4-(7-(1-(oxetan-3-yl)-1H-pyrazol-4-yl)imidazo[1,2-c]pyrimidin-5-yl)-1H-pyrazol-1-yl)spiro[3.3]heptan-2-yl)acetonitrile]
10 to 100 nM	> 1000 nM	100 to 1000 nM	> 1000 nM	Cn1cc(-c2cc3nccn3c(-c3cnn(C4(CC#N)CN(C(CF)CF)C4)c3)n2)cn1 [Example 79, 2-(1-(1,3-difluoropropan-2-yl)-3-(4-(7-(1-methyl-1H-pyrazol-4-yl)imidazo[1,2-c]pyrimidin-5-yl)-1H-pyrazol-1-yl)azetidin-3-yl)acetonitrile]
< 10 nM	100 to 1000 nM	10 to 100 nM	> 1000 nM	Cn1cc(-c2cc3nccn3c(-c3cnn(C4(CC#N)CN(S(C)(=O)=O)C4)c3)n2)cn1 [Example 92, 2-(3-(4-(7-(1-methyl-1H-pyrazol-4-yl)imidazo[1,2-c]pyrimidin-5-yl)-1H-pyrazol-1-yl)-1-(methylsulfonyl)azetidin-3-yl)acetonitrile]
< 10 nM	10 to 100 nM	10 to 100 nM	> 1000 nM	Cn1cc(-c2cc3nccn3c(-c3cnn(C(CC#N)C4CCCC4)c3)n2)cn1 (centres unmarked) [Example 17, 3-cyclopentyl-3-(4-(7-(1-methyl-1H-pyrazol-4-yl)imidazo[1,2-c]pyrimidin-5-yl)-1H-pyrazol-1-yl)propanenitrile]
100 to 1000 nM	> 1000 nM	> 1000 nM	> 1000 nM	Cn1cc(-c2cc3nccn3c(-c3cnn(C4(CC#N)CN(CC5CCOCC5)C4)c3)n2)cn1 [Example 89, 2-(3-(4-(7-(1-methyl-1H-pyrazol-4-yl)imidazo[1,2-c]pyrimidin-5-yl)-1H-pyrazol-1-yl)-1-((tetrahydro-2H-pyran-4-yl)methyl)azetidin-3-yl)acetonitrile]
< 10 nM	10 to 100 nM	10 to 100 nM	> 1000 nM	Cn1cc(-c2cc3nccn3c(-c3cnn(C4(CC#N)CN(S(=O)(=O)C5CC5)C4)c3)n2)cn1 [Example 95, 2-(1-(cyclopropylsulfonyl)-3-(4-(7-(1-methyl-1H-pyrazol-4-yl)imidazo[1,2-c]pyrimidin-5-yl)-1H-pyrazol-1-yl)azetidin-3-yl)acetonitrile]
< 10 nM	10 to 100 nM	10 to 100 nM	100 to 1000 nM	N#CCC(C1CC1)n1cc(-c2nc(-c3ccc(N4CC5CCC(C4)O5)cc3)cc3nccn23)cn1 (centres unmarked) [Example 58, 3-(4-(7-(4-(8-Oxa-3-azabicyclo[3.2.1]octan-3-yl)phenyl)imidazo[1,2-c]pyrimidin-5-yl)-1H-pyrazol-1-yl)-3-cyclopropylpropanenitrile]
10 to 100 nM	100 to 1000 nM	100 to 1000 nM	> 1000 nM	Cn1cc(-c2cc3nccn3c(-c3cnn(C(CC#N)C(C)(C)C)c3)n2)cn1 (centres unmarked) [Example 18, 4,4-dimethyl-3-(4-(7-(1-methyl-1H-pyrazol-4-yl)imidazo[1,2-c]pyrimidin-5-yl)-1H-pyrazol-1-yl)pentanenitrile]
